Measurements as given in ChEMBL document CHEMBL1201862, “PubChem BioAssay data set” (2004).
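Protocol summary: plate cells (96-well), add compound at 5 concentrations, incubate 48 h, interpolate endpoints linearly. GI50 is the concentration that inhibits growth by half.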 Activity calls are given as the source filed them. Cut-off read from the data, not from the text of the source: active = GI50 up to about 1.1 µM and inactive = higher.

Legend:
Experiment in all cases: NCI anticancer screen, dose series, 48 h
[1] = system: 786-0
[2] = system: A498
[3] = system: A549
[4] = system: ACHN
[5] = system: CAKI-1
[6] = system: CCRF-CEM
[7] = system: COLO 205
[8] = system: DLD-1
[9] = system: DMS-114
[10] = system: DMS-273
[11] = system: EKVX
[12] = system: HCC 2998
[13] = system: HCT-116
[14] = system: HCT-15
[15] = system: HL-60
[16] = system: HOP-62
[17] = system: HOP-92
[18] = system: HT-29
[19] = system: IGROV-1
[20] = system: K562
[21] = system: KM-20L2
[22] = system: KM12
[23] = system: LOX IMVI
[24] = system: LXFL 529
[25] = system: M14
[26] = system: M19-MEL
[27] = system: MOLT-4
[28] = system: Malme-3M
[29] = system: NCI-H226
[30] = system: NCI-H23
[31] = system: NCI-H460
[32] = system: NCI-H522
[33] = system: OVCAR-3
[34] = system: OVCAR-4
[35] = system: OVCAR-5
[36] = system: OVCAR-8
[37] = system: RPMI-8226
[38] = system: RXF 393
[39] = system: RXF 631
[40] = system: SF-268
[41] = system: SF-295
[42] = system: SF-539
[43] = system: SK-MEL-28
[44] = system: SK-MEL-5
[45] = system: SK-OV-3
[46] = system: SN12C
[47] = system: SNB-19
[48] = system: SNB-75
[49] = system: SR
[50] = system: SW-620
[51] = system: TK-10
[52] = system: U-251
[53] = system: UACC-257
[54] = system: UACC-62
[55] = system: UO-31
[56] = system: XF498
[57] = system: HOP-18
[58] = system: SK-MEL-2
[59] = system: SNB-78

CN(C)CC(C)(C)C(=O)/C=C/c1ccc(/C=C/C(=O)C(C)(C)CN(C)C)cc1
GI50 [1]: 1600 nM (inactive)
GI50 [2]: 1900 nM (inactive)
GI50 [3]: 2790 nM (inactive)
GI50 [4]: 1470 nM (inactive)
GI50 [5]: 1420 nM (inactive)
GI50 [6]: 1050 nM (active)
GI50 [7]: 1030 nM (active)
GI50 [8]: 280 nM (active)
GI50 [9]: 1300 nM (inactive)
GI50 [10]: 706 nM (active)
GI50 [11]: 1450 nM (inactive)
GI50 [12]: 1660 nM (inactive)
GI50 [13]: 1260 nM (inactive)
GI50 [14]: 605 nM
GI50 [15]: 1610 nM (inactive)
GI50 [16]: 2140 nM (inactive)
GI50 [17]: 682 nM (active)
GI50 [18]: 510 nM (active)
GI50 [19]: 1710 nM (inactive)
GI50 [20]: 202 nM (active)
GI50 [21]: 1040 nM (active)
GI50 [22]: 1850 nM (inactive)
GI50 [23]: 456 nM (active)
GI50 [24]: 1170 nM (inactive)
GI50 [25]: 1620 nM (inactive)
GI50 [26]: 1660 nM (inactive)
GI50 [27]: 519 nM (active)
GI50 [28]: 1870 nM (inactive)
GI50 [29]: 2230 nM (inactive)
GI50 [30]: 1910 nM (inactive)
GI50 [31]: 3780 nM (inactive)
GI50 [32]: 136 nM (active)
GI50 [33]: 1290 nM (inactive)
GI50 [34]: 1020 nM (active)
GI50 [35]: 1820 nM (inactive)
GI50 [36]: 2390 nM (inactive)
GI50 [37]: 1970 nM (inactive)
GI50 [38]: 1170 nM (inactive)
GI50 [39]: 2000 nM (inactive)
GI50 [40]: 1350 nM (inactive)
GI50 [41]: 2050 nM (inactive)
GI50 [42]: 2130 nM (inactive)
GI50 [43]: 1870 nM (inactive)
GI50 [44]: 2320 nM (inactive)
GI50 [45]: 2810 nM (inactive)
GI50 [46]: 1420 nM (inactive)
GI50 [47]: 1960 nM (inactive)
GI50 [48]: 1580 nM (inactive)
GI50 [49]: 2280 nM (inactive)
GI50 [50]: 706 nM (active)
GI50 [51]: 1640 nM (inactive)
GI50 [52]: 1610 nM (inactive)
GI50 [53]: 2090 nM (inactive)
GI50 [54]: 1740 nM (inactive)
GI50 [55]: 1990 nM (inactive)
GI50 [56]: 1220 nM (inactive)

O/N=C(\C(=N/O)Nc1ccc(-c2ccc(NC(=N/O)/C(=N\O)c3ccccc3)cc2)cc1)c1ccccc1
GI50 [1]: 21500 nM (inactive)
GI50 [2]: 24100 nM (inactive)
GI50 [3]: 31500 nM (inactive)
GI50 [4]: 30600 nM (inactive)
GI50 [5]: 22400 nM (inactive)
GI50 [6]: 18800 nM (inactive)
GI50 [7]: 16700 nM (inactive)
GI50 [8]: 22300 nM (inactive)
GI50 [10]: 19100 nM (inactive)
GI50 [11]: 20400 nM (inactive)
GI50 [12]: 214 nM (active)
GI50 [13]: 18700 nM (inactive)
GI50 [14]: 27300 nM
GI50 [15]: 27900 nM (inactive)
GI50 [57]: 13600 nM (inactive)
GI50 [16]: 11000 nM (inactive)
GI50 [17]: 20000 nM (inactive)
GI50 [18]: 13600 nM (inactive)
GI50 [19]: 25100 nM (inactive)
GI50 [20]: 18000 nM (inactive)
GI50 [21]: 18900 nM (inactive)
GI50 [22]: 19000 nM (inactive)
GI50 [23]: 15300 nM (inactive)
GI50 [24]: 15700 nM (inactive)
GI50 [25]: 17900 nM (inactive)
GI50 [26]: 17200 nM (inactive)
GI50 [27]: 17300 nM (inactive)
GI50 [28]: 19400 nM (inactive)
GI50 [29]: 28500 nM (inactive)
GI50 [30]: 17500 nM (inactive)
GI50 [31]: 17300 nM (inactive)
GI50 [32]: 17800 nM (inactive)
GI50 [33]: 17100 nM (inactive)
GI50 [35]: 13500 nM (inactive)
GI50 [36]: 21400 nM (inactive)
GI50 [37]: 25900 nM (inactive)
GI50 [40]: 27400 nM (inactive)
GI50 [41]: 18600 nM (inactive)
GI50 [42]: 18900 nM (inactive)
GI50 [58]: 20200 nM (inactive)
GI50 [44]: 20300 nM (inactive)
GI50 [45]: 17500 nM (inactive)
GI50 [46]: 32800 nM (inactive)
GI50 [47]: 19200 nM (inactive)
GI50 [59]: 30800 nM (inactive)
GI50 [50]: 22200 nM (inactive)
GI50 [51]: 36800 nM (inactive)
GI50 [52]: 25700 nM (inactive)
GI50 [53]: 29900 nM (inactive)
GI50 [54]: 18500 nM (inactive)
GI50 [55]: 31800 nM (inactive)
GI50 [56]: 19300 nM (inactive)
